This passage reports Activity and AI results from ChEMBL document CHEMBL3044693, “Synthesis and antihyperlipidemic activity of novel condensed 2-fluoromethylpyrimidines” (2013).

Common to all, as to assay type: functional
For assay [1], the system named is Rattus norvegicus. Nature of the assay: Antihyperlipidemic activity in high fat diet fed Sprague-Dawley Rattus norvegicus (rat) assessed as coronary risk index at 50 mg/kg, po daily for 7 days measured on day 8 (reference value: 5.21 +/-1.76 no unit).
The subject of assay [2] is Rattus norvegicus. Nature of the assay: Antihyperlipidemic activity in high fat diet fed Sprague-Dawley Rattus norvegicus (rat) assessed as atherogenic index at 50 mg/kg, po daily for 7 days measured on day 8 (reference value: 4.15 +/-0.23 no unit).
Assay [3] concerns Rattus norvegicus. Description: Antihyperlipidemic activity in high fat diet fed Sprague-Dawley Rattus norvegicus (rat) assessed as decrease in serum VLDL level at 50 mg/kg, po daily for 7 days measured on day 8 relative to untreated control. Details: scale not given: the % may be the effect or the level left.
Assay [4] relates to Rattus norvegicus. Nature of the assay: Antihyperlipidemic activity in high fat diet fed Sprague-Dawley Rattus norvegicus (rat) assessed as decrease in serum LDL level at 50 mg/kg, po daily for 7 days measured on day 8 relative to untreated control. Details: scale not given: the % may be the effect or the level left.
Assay [5] has as its system Rattus norvegicus. Nature of the assay: Antihyperlipidemic activity in high fat diet fed Sprague-Dawley Rattus norvegicus (rat) assessed as increase in serum HDL level at 50 mg/kg, po daily for 7 days measured on day 8 relative to untreated control.
Assay [6] concerns Rattus norvegicus. Nature of the assay: Antihyperlipidemic activity in high fat diet fed Sprague-Dawley Rattus norvegicus (rat) assessed as decrease in serum triglyceride level at 50 mg/kg, po daily for 7 days measured on day 8 relative to untreated control. Details: scale not given: the % may be the effect or the level left.
Assay [7] relates to Rattus norvegicus. Nature of the assay: Antihyperlipidemic activity in high fat diet fed Sprague-Dawley Rattus norvegicus (rat) assessed as decrease in serum total cholesterol level at 50 mg/kg, po daily for 7 days measured on day 8 relative to untreated control. Details: scale not given: the % may be the effect or the level left.
For assay [8], the system named is Rattus norvegicus. Description: Antihyperlipidemic activity in high fat diet fed Sprague-Dawley Rattus norvegicus (rat) assessed as coronary risk index at 1 mg/kg, po daily for 7 days measured on day 8 (reference value: 5.21 +/-1.76 no unit).
Assay [9] relates to Rattus norvegicus. Description: Antihyperlipidemic activity in high fat diet fed Sprague-Dawley Rattus norvegicus (rat) assessed as atherogenic index at 1 mg/kg, po daily for 7 days measured on day 8 (reference value: 4.15 +/-0.23 no unit).
Assay [10] concerns Rattus norvegicus. Nature of the assay: Antihyperlipidemic activity in high fat diet fed Sprague-Dawley Rattus norvegicus (rat) assessed as decrease in serum VLDL level at 1 mg/kg, po daily for 7 days measured on day 8 relative to untreated control. Details: scale not given: the % may be the effect or the level left.
For assay [11], the system named is Rattus norvegicus. Nature of the assay: Antihyperlipidemic activity in high fat diet fed Sprague-Dawley Rattus norvegicus (rat) assessed as decrease in serum LDL level at 1 mg/kg, po daily for 7 days measured on day 8 relative to untreated control. Details: scale not given: the % may be the effect or the level left.
Assay [12] concerns Rattus norvegicus. Nature of the assay: Antihyperlipidemic activity in high fat diet fed Sprague-Dawley Rattus norvegicus (rat) assessed as increase in serum HDL level at 1 mg/kg, po daily for 7 days measured on day 8 relative to untreated control.
The subject of assay [13] is Rattus norvegicus. Nature of the assay: Antihyperlipidemic activity in high fat diet fed Sprague-Dawley Rattus norvegicus (rat) assessed as decrease in serum triglyceride level at 1 mg/kg, po daily for 7 days measured on day 8 relative to untreated control. Details: scale not given: the % may be the effect or the level left.
For assay [14], the system named is Rattus norvegicus. Description: Antihyperlipidemic activity in high fat diet fed Sprague-Dawley Rattus norvegicus (rat) assessed as decrease in serum total cholesterol level at 1 mg/kg, po daily for 7 days measured on day 8 relative to untreated control. Details: scale not given: the % may be the effect or the level left.

The structures appear in SMILES notation.

For the compound `Cc1sc2nc(CF)[nH]c(=O)c2c1-c1ccccc1`, the Activity in [1] worked out at 3.18; in [3] it was 39.77%; in assay [4], 48.7%; in assay [5] it was 41.31%; in assay [6], 39.74%; in assay [7], 33.18%. The AI in assay [2] amounted to 1.51.
For the compound `Cc1sc2nc(CF)[nH]c(=O)c2c1C`, the Activity in [1] was found to be 3.14; in assay [3], 37.83%; in assay [4] it was 45.91%; in assay [5], 44.68%; in [6] it was 37.8%; in [7] it was 32.48%. Moreover, the AI in assay [2] was 1.46.
Turning to `O=C1[C@H](CC[C@H](O)c2ccc(F)cc2)[C@@H](c2ccc(O)cc2)N1c1ccc(F)cc1` [EZETIMIBE], the Activity amounted to 2.01 in assay [8]; 52.22% in [10]; 75.41% in assay [11]; 74.96% in assay [12]; 52.23% in assay [13]; 47.57% in assay [14]. The AI in [9] stood at 0.58.
`O=c1[nH]c(CF)nc2sc3c(c12)CCCC3`: the Activity was 2.39 in assay [1]; 50.71% in assay [3]; 65.82% in [4]; 58.27% in assay [5]; 50.71% in assay [6]; 40.44% in assay [7]. Further, the AI in assay [2] was 0.96.
For the compound `COc1cc2nc(CF)[nH]c(=O)c2cc1OC`, the Activity in [1] turned out to be 3.16; in [3], 45.85%; in assay [4], 40.26%; in [5], 62.44%; in [6], 45.14%; in assay [7] it was 26.27%. Further, the AI in assay [2] is 1.53.
As to `O=c1[nH]c(CF)nc2scc(-c3ccccc3)c12`, the Activity stood at 2.63 in [1]; 49.37% in assay [3]; 56.47% in [4]; 46.43% in [5]; 49.36% in [6]; 37.45% in [7]. In addition, the AI in [2] was found to be 1.13.
For the compound `O=c1[nH]c(CF)nc2ccccc12`, the Activity in assay [1] is 2.75; in assay [3], 46.8%; in [4], 57.31%; in assay [5], 52.4%; in assay [6], 46.19%; in assay [7], 38.24%. In addition, the AI in [2] amounted to 1.2.
For the compound `O=c1[nH]c(CF)nc2scc(-c3ccc(Cl)cc3)c12`, the Activity stood at 2.05 in assay [1]; 51.91% in assay [3]; 72.47% in assay [4]; 79.63% in assay [5]; 51.91% in assay [6]; 44.99% in assay [7]. The AI in [2] amounted to 0.63.
For `CCOC(=O)C1=C(C)C2C(=O)N=C(CF)N=C2S1` (stereo not drawn), the Activity in [1] came out at 1.69; in [3], 57.76%; in assay [4], 86.92%; in assay [5], 73.48%; in [6], 57.77%; in [7], 56.19%. Besides, in assay [2], the AI is listed as 0.31.
